# How the values were obtained:
# [1] = biological target: T1, catechol O-methyl transferase (COMT) (Homo sapiens, UniProt P21964); assay: COMT inhibition; type: biochemical
# T1 sequence (P21964 1-271): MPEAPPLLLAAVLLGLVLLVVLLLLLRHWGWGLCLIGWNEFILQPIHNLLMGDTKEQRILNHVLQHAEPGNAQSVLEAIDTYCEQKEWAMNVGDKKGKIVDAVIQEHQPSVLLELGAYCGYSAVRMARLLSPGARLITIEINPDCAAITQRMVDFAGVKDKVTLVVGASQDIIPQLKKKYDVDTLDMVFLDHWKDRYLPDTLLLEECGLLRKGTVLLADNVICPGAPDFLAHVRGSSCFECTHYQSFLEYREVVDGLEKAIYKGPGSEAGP
# [2] = biological target: T2, monoamine oxidase isoform A (Homo sapiens, UniProt P21397); assay: Monoamine oxidase A inhibition; type: biochemical
# T2 sequence (P21397 1-527): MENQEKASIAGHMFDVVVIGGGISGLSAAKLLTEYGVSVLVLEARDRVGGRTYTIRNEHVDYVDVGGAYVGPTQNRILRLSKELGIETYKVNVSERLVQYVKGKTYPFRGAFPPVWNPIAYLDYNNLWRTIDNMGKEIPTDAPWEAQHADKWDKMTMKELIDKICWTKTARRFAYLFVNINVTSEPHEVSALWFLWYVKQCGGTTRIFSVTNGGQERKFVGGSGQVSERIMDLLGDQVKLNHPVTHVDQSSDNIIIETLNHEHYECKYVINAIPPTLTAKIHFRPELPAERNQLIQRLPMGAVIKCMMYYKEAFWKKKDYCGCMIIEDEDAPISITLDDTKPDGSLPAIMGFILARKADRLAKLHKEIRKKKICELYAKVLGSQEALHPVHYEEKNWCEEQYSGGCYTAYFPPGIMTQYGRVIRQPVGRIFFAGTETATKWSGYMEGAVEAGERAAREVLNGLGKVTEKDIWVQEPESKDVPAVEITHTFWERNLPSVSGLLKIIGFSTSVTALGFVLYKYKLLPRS
smiles,measurement,setting,value
"COc1cc2c(cc1OC)[C@H]1C[C@H](O)[C@@H](CC(C)C)CN1CC2 (single isomer, unassigned) [Isomer B]",inhibitory activity against catechol O-methyl transferase (COMT),[1],no inhibitory activity
same,inhibitory activity against monoamine oxidase isoform A,[2],no inhibitory activity

# Reference: US20080319000A1, “Use of 3,1IB-Cis-Dihydrotetrabenazine for the Treatment of Symptoms of Huntingtons Disease” (CAMBRIDGE LABORATORIES (IRELAND) LIMITED, priority 2005, published 2008)
